Peptide text beside a SMILES is read from it. * marks the point of attachment. Cbz = O=C(OCc1ccccc1)*
Assays:
Bcl-xL = molecular target: T1, Bcl-xL (Mus musculus, UniProt Q64373); experiment: Western blot of Bcl-xL degradation in NIH-3T3 cells; format: cell-based; details: for effect of pretreatment on SIAIS361034-induced Bcl-xL degradation: pretreated 2 h with ABT-263 1 µM, Pomalidomide 10 µM or MG132 1 µM, then SIAIS361034 24 h
T1 construct: endogenous in cells; host or cells: NIH-3T3
Procedure: (§1) Cells were lysed in cell lysis buffer (50 mM Tris pH 8.0, 150 mM NaCl, 10% glycerol, 1 mM EDTA, 50 mM NaF, and 0.1% NP-40) supplemented with protease and phosphatase inhibitors. Total protein extracts of tissues were generated in radioimmunoprecipitation (RIPA) assay lysis buffer containing complete protease and phosphatase inhibitor cocktail. Protein content was quantified using the Pierce BCA Protein Assay Kit (#23225, Thermo Fisher Scientific). The proteins were separated by SDS-PAGE, electrophoretically transferred to polyvinylidene difluoride (PVDF) blotting membranes (#LC2002, Thermo Fisher Scientific), and subjected to routine immunoblot analysis with primary antibodies as follows: anti-Bcl-2 (#15071), anti-Mcl-1 (#94296), anti-VHL (#68547), anti-CRBN (#71810), and anti-Sufu (#2522) were obtained from Cell Signaling Technology (Danvers, Massachusetts, USA); anti-Bcl-xL (#ab32370), anti-Gli1 (#ab134906), and anti-Smoothened (#ab236465) were obtained from Abcam (Cambridge, CB2 0AX, UK); anti-GAPDH (#60004-1-Ig) and anti-β-tubulin (#10094-1-AP) were purchased from Proteintech Group, Inc. (Rosemont, IL 60018, USA). The results were quantified by densitometry using ImageJ software (NIH).

platelets = experiment: Platelet toxicity assay in C57BL/6J mice; format: in vivo, mouse; details: SIAIS361034 single i.p. 50 and 100 mg/kg, ABT-263 single p.o. 100 mg/kg, 8 h and 24 h
Description: Blood was collected at different time points via retro-orbital bleeding in anticoagulation tube. Platelets or different blood cells were enumerated using BM800 blood analyzer (Bowlinman Sunshine).

NF-κB signaling pathway = experiment: NF-κB luciferase reporter assay in 293T cells; format: cell-based; details: TNF-α 10 ng/mL, 6 h, SIAIS361034 10 μM, BAY 11-7082 20 μM
Procedure: (§2) Cells seeded in 96-well plates were treated with various treatments as indicated. The luciferase activity in the cell lysates was measured using Dual-Luciferase Reporter Assay System (Promega, Madison, WI, USA) according to the manufacturer's instructions in a luminometer (Molecular Devices, Sunnyvale, CA). The firefly luciferase values were normalized to Renilla values. […]
Data represent mean ± SD (n = 3). (B) NF-κB luciferase analysis of the effect of SIAIS361034 on NF-κB signaling pathway in 293T cells.The 293T cells were transfected with NF-κB luciferase reporter and Renilla-TK plasmids and […]
μM) for 6 h. Data represent mean ± SD (n = 3). […]
(§3) Data represent mean ± SD (n = 3).
(§4) (1 picture or pasted object on this page, not shown here)

[1] = tested on: Hh pathway (Gli-luciferase) in light II cells; experiment: Dual luciferase reporter assay, Gli-luciferase provoked by SAG in light II cells; format: cell-based; details: SAG 100 nM; for effect of pretreatment on Gli-luciferase activity suppressed by SIAIS361034: pretreated 2 h with MG132 1 µM or Pomalidomide 10 µM, then SIAIS361034 1 µM
Procedure: (§5) Cells seeded in 96-well plates were treated with various treatments as indicated. The luciferase activity in the cell lysates was measured using Dual-Luciferase Reporter Assay System (Promega, Madison, WI, USA) according to the manufacturer's instructions in a luminometer (Molecular Devices, Sunnyvale, CA). The firefly luciferase values were normalized to Renilla values.

[2] = tested on: bone growth of young mice; experiment: Bone growth of young mice (body weight, Micro-CT, H&E, IHC); format: in vivo, mouse; details: for body size: 5-week-old mice after treatment from P12 to P16; for femur length (Micro-CT, in words): mice at 6 weeks of age, treated P12 to P16; for levels of Bcl-xL in femurs (IHC): mice treated P12 to P16; for expression levels of Gli1 in femurs (IHC): mice treated P12 to P16, compared with Vehicle
Procedure: Skeleton Micro-CT images of mice were taken under anesthesia. The femurs were fixed and stored in 4% PFA at 4 °C. Mice and femurs were scanned using Inveon PET-CT (Siemens). Bone tissues were computed with Inveon Acquisition Workplace (IAW). Image data were visualized and analyzed by Inveon Viewer.
Femurs were fixed in 4% PFA and decalcified in 14% EDTA for 2 weeks at 4 °C. Bone tissues were embedded in paraffin. Thin sections were stained with hematoxylin and eosin (H&E) according to the manufacturer's instructions. For immunohistochemistry (IHC), paraffin-embedded sections of femurs were baked at 60 °C for 20 min, deparaffinized by xylene for 25 min, rehydrated through ethanol series, and incubated with citrate buffer at 95 °C for 20 min for antigen retrieval. Sections were incubated with the primary antibodies as indicated overnight at 4 °C, followed by goat anti-rabbit secondary antibody. The primary antibodies used in this study include Bcl-xL (1:2000, ab178844, Abcam) and Gli1 (1:100, 101156-T10, Sino Biological).

Gli1 = experiment: Western blot of Gli1 in light II cells; format: cell-based; details: 1 µM
Procedure: as §1

[3] = tested on: Hh pathway (Gli-luciferase) provoked by Gli2; experiment: Dual luciferase reporter assay, Hh activity initiated by ectopic Gli2-HA in light II cells; format: cell-based; details: for IC50: ectopic Gli2-HA, 36 h
Description: (§6) The TCF/LEF luciferase reporter plasmid, NF-κB luciferase reporter plasmid, and TK-Renilla luciferase plasmid were purchased from Promega (Madison, WI, USA). Smo plasmid was purchased from Origene (Rockville, MD, USA). The Smo mutant plasmids were generated from wild type Smo plasmid using QuickChange Site-Directed Mutagenesis kit from Agilent (Santa Clara, CA, USA) and confirmed by sequencing. Information on Smo mutants plasmids is provided in Supplementary data 2. The Gli1 plasmid and Gli2-HA plasmid were obtained from Addgene (Cambridge, MA, USA). Transient transfections were performed by Lipofectamine 2000 reagent from Invitrogen (Grand Island, NY, USA) according to the manufacturer's instructions.
as §5

Wnt signaling pathway = experiment: TCF/LEF luciferase reporter assay in LS174T cells; format: cell-based; details: PGE2 1 μM, 24 h, SIAIS361034 10 μM, H-89 20 μM
Procedure: as §2
μM) for 6 h. Data represent mean ± SD (n = 3). (C) TCF/LEF luciferase analysis of the effect of SIAIS361034 on Wnt signaling pathway in LS174T cells. The LS174T cellswere transfected with TCF/LEF luciferase reporter and Renilla-TK plasmids and […]
as §3, §4

[4] = tested on: Hh pathway (Gli-luciferase) provoked by Smo WT / Smo mutants; experiment: Dual luciferase reporter assay, Hh activity induced by ectopic Smo WT or Smo mutants in light II cells; format: cell-based; details: Smo WT, D473H, H231R, W281C, W535L, L412F, F460L, GDC-0449 10 μM (Figure S3B-D)
Description: as §6, §5

[5] = tested on: hair growth and Hh pathway activity in skin; experiment: Depilatory mouse model; format: in vivo
Procedure: For Depilatory model studies, male C57BL/6J mice (7 to 8 weeks of age) were purchased from Shanghai Lingchang Biotechnology Co. (Shanghai, China). After 2 days of acclimation, only healthy mice were used in the experiment. The back skin of the anesthetized mice was shaved and depilated using the depilatory Nair (Church & Dwight Co., Inc.). After 4 days, the depilated mice were randomized into groups for treatments as indicated. The back skin phenotypes were recorded by taking pictures every 3 days. Skin tissues were harvested 6 h after the last dosage to examining Gli1 mRNA expression as well as Gli1 and Bcl-xL protein levels.

[6] = tested on: SmoA1 (Smo W539L) medulloblastoma tumor; experiment: SmoA1 medulloblastoma allograft in nude mice; format: in vivo, mouse
Description: For in vivo SmoA1 MB allograft studies, SmoA1 spontaneous MB tumors were obtained from ND2:SmoA1 transgenic mice as previously described. Male nude mice (4 to 5 weeks of age) were purchased from Shanghai Lingchang Biotechnology Co. (Shanghai, China). Spontaneous tumors were harvested and subcutaneously allografted into nude mice. When the tumor volumes reached approximately 2000 mm^3, they were harvested and further subcutaneously allografted into nude mice. When the tumor volumes reached about 150 to 200 mm^3, the tumor-bearing mice were randomly assigned into vehicle and treatment groups. Mice were weighed every 3 days. Tumor size was measured once every 3 days using microcaliper. Tumor volume (V) was determined using the following formula: V = (L×W^2) ×0.5, where L is length, and W is width in mm. Tumor tissues were harvested 6 h after the last dosage to examining Gli1 mRNA expression and protein levels. SIAIS361034 for i.p. administration was formulated in 0.5% sodium carboxymethyl cellulose (CMC-Na). All in vivo studies above were approved by and conformed to the policies and regulations of the Animal Care and Use Committee of Fudan University, China.

[7] = tested on: medulloblastoma sensitive to Smo inhibitors; design: method as in PMID 19716296; details: GDC-0449 50 mg/kg; cited from earlier work

T1 sequence (Q64373 whole entry): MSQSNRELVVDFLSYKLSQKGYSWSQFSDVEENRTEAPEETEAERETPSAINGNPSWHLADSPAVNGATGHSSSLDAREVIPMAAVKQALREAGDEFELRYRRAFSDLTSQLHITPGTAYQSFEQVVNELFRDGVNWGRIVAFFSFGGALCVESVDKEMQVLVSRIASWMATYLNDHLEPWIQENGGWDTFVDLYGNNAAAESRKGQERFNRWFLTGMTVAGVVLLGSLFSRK

## CC1(C)CCC(c2ccc(Cl)cc2)=C(CN2CCN(c3ccc(C(=O)NS(=O)(=O)c4ccc(N[C@H](CCN5CCOCC5)CSc5ccccc5)c(S(=O)(=O)C(F)(F)F)c4)cc3)CC2)C1 [ABT-263, reference compound]
Bcl-xL
  effect of pretreatment on SIAIS361034-induced Bcl-xL degradation: abolished the SIAIS361034-induced Bcl-xL degradation
platelets
  number of platelets: severe thrombocytopenia

## Cc1ccc(S(=O)(=O)/C=C/C#N)cc1 [BAY 11-7082, reference compound]
NF-κB signaling pathway
  NF-κB luciferase activity activated by TNF-α: significantly impeded

## Nc1cccc2c1C(=O)N(C1CCC(=O)NC1=O)C2=O (centres unmarked) [Pomalidomide, reference compound]
Bcl-xL
  effect of pretreatment on SIAIS361034-induced Bcl-xL degradation: obviously abolished SIAIS361034-induced Bcl-xL degradation
[1]
  effect of pretreatment on Gli-luciferase activity suppressed by SIAIS361034: abolished the suppressed Gli-luciferase activity

## Cc1ncsc1-c1ccc([C@H](C)NC(=O)[C@@H]2C[C@@H](O)CN2C(=O)[C@@H](NC(=O)CCCCCC(=O)N2CCN(CC[C@H](CSc3ccccc3)Nc3ccc(S(=O)(=O)NC(=O)c4ccc(N5CCN(CC6=C(c7ccc(Cl)cc7)CCC(C)(C)C6)CC5)cc4)cc3S(=O)(=O)C(F)(F)F)CC2)C(C)(C)C)cc1 [DT2216]
[2]
  body size: smaller body sizes
  femur length (Micro-CT, in words): obvious shortening of the femur
  levels of Bcl-xL in femurs (IHC): reduced
  expression levels of Gli1 in femurs (IHC): significantly suppressed
[2]; young mice treated from P12 to P16
  rate of weight growth: decelerated the rate of weight growth

## CC(C)C[C@@H](C=O)NC(=O)[C@H](CC(C)C)NC(=O)[C@H](CC(C)C)NC(=O)OCc1ccccc1 [MG132, reference compound] (Cbz-Leu-Leu-Leu-aldehyde)
Bcl-xL
  effect of pretreatment on SIAIS361034-induced Bcl-xL degradation: obviously abolished SIAIS361034-induced Bcl-xL degradation
[1]
  effect of pretreatment on Gli-luciferase activity suppressed by SIAIS361034: abolished the suppressed Gli-luciferase activity

## Cc1sc2c(c1C)C(c1ccc(Cl)cc1)=N[C@@H](CC(=O)OC(C)(C)C)c1nnc(C)n1-2 [JQ1, reference compound]
Gli1
  Gli1 protein level: reduced Gli1 protein

## CN1C(=O)CCC(N2Cc3c(C#CCCCN4CCN(CCCNc5ccc(S(=O)(=O)NC(=O)c6ccc(N7CCN(CC8=C(c9ccc(Cl)cc9)CCC(C)(C)C8)CC7)cc6)cc5S(=O)(=O)C(F)(F)F)CC4)cccc3C2=O)C1=O (centres unmarked) [SIAIS361034NC]
Bcl-xL; 1 µM, western blot
  Bcl-xL degradation: failed to degrade Bcl-xL
[1]; 36 h, read-out: IC50 value inhibiting the Gli-luciferase activity provoked by SAG
  IC50: 3.16 µM
[3]
  IC50: 1.77 µM

## O=S(=O)(NCCNC/C=C/c1ccc(Br)cc1)c1cccc2cnccc12 [H-89, reference compound]
Wnt signaling pathway
  TCF/LEF luciferase activity (Wnt signaling) activated by PGE2: significantly inhibited

## CS(=O)(=O)c1ccc(C(=O)Nc2ccc(Cl)c(-c3ccccn3)c2)c(Cl)c1 [GDC-0449, reference compound]
[4]
  Hh activity provoked by wild type Smo and Smo mutants: little appreciable effect
[3]
  Hh activity evoked by ectopic expression of Gli2: no effect
  IC50: > 10 µM
[5]; male C57BL/6J mice, administered after 4 days of depilation
  hair growth during depilation-induced hair regeneration: significantly retarded hair growth
[5]; skin harvested 6 h after the last dosage, western blot
  Gli1 and Bcl-xL protein levels in skin tissues: no effect on the levels of Bcl-xL
[6]; nude mice, SIAIS361034 50 mg/kg, GDC-0449 50 mg/kg p.o.
  growth of SmoA1 tumors: obvious resistance
[6]; tumors harvested 6 h after the last dosage, RT-qPCR
  expression of Gli1 mRNA in tumor tissues: no alteration
[2]
  body size: smaller body sizes
  femur length (Micro-CT, in words): obvious shortening of the femur
  levels of Bcl-xL in femurs (IHC): No change
  expression levels of Gli1 in femurs (IHC): significantly suppressed
[7]
  TGI: 100%

Reference: publication PMC9691367, “The PROTAC selectively degrading Bcl-xL represents a novel Hedgehog pathway inhibitor with capacity of combating resistance to Smoothened inhibitors while sparing bone growth” (Theranostics, 2022)
